Laboratory results published in paper PMC10721329, “Quisinostat is a brain-penetrant radiosensitizer in glioblastoma” (JCI Insight, 2023).
Several values for one entry are separate records, joined by “and”; a condition that tells them apart may be missing. Identical values can stand only once. Like-named read-outs stand apart in the source and are kept apart here.

Assays:
[1] = Total and unbound QST in tumor and contralateral brain, short-term treatment, orthotopic GB126 PDX; assay type: in vivo
Experimental: To establish the PK-PD correlation and efficacy in an orthotopic patient-derived xenograft (PDX) model of GBM, we implanted GB126 cells in the brains of athymic nude mice and began treatment once the tumors started growing exponentially. Tumor-bearing mice were treated with QST (10 mg/kg), with or without IR, on a MWF schedule (Figure 7A). As described above, IR was delivered locally to the brain in 2-Gy fractions 2 hours after being dosed with vehicle solution or QST, for a cumulative delivery of 6 Gy. To assess acute PD effects and drug levels after short-term QST treatment (1 week, 3 doses total), 10 mice from each experimental cohort were sacrificed 3 hours after receiving the third dose of vehicle solution or QST (Figure 7A). Plasma, tumors, and brain tissue contralateral to the tumors were collected and processed for PK and PD analyses. […] To assess PD modulation, we homogenized brain tumors to obtain whole-tissue protein lysates from each mouse and quantified changes in histone H3 acetylation levels using immunoblotting.
QST concentrations in specimens were measured using reverse-phase LC on the AB SCIEX QTRAP6500+ LC-MS/MS system by operating electrospray in the positive ion mode. For liquid chromatographic separation, gradient elution was performed using a Phenomenex Kinetex F5 100 Å column (100 × 2.1 mm, 2.6 μm). The initial composition of the mobile phase was 70% phase A (0.1% formic acid in water) and 30% phase B (0.1% formic acid in 1:1 acetonitrile/methanol) with a 0.35 mL/min flow rate. […] The total run time was 3.5 minutes. The internal standard used in this study was D8-infigratinib. […] LC-MS/MS analysis was performed using an Analyst 1.7 Chromatographic Data System. See Supplemental Methods for detailed PK experiments.
Gy on MWF for a total of 6 Gy in the first week of treatment. Treatment groups included vehicle (50% PEG-3000), QST (10 mg/kg) alone, 6 Gy whole-brain IR treatment with vehicle, and 6 Gy whole-brain IR treatment with 10 mg/kg QST. QST was administered to mice through intraperitoneal injections two hours prior to whole-brain radiation treatment. […]
For short-term PK-PD correlation studies, tumor-bearing mice were randomized into groups and underwent a single week of treatment with QST (10 mg/kg) on MWF. For mice receiving IR treatment with or without QST, mice were treated with 2 Gy on MWF for a total of 6 Gy. QST was administered to mice through intraperitoneal injections 2 hours before whole-brain radiation treatment. On the third and last day of treatment, mice were sacrificed and processed for PD and PK analyses 3 hours after administration of QST or vehicle. For PD analyses, the mice were euthanized with isoflurane, and the tumors were dissected out of the brain and flash-frozen for subsequent analysis through Western blotting and RNA sequencing.
Tissue from the hemisphere contralateral to the tumor was also collected as a normal brain/nontumor reference sample. For PK analyses, the mice were anesthetized with isoflurane, and at least 300 μL of blood was drawn from the right ventricle of the heart. The blood was collected in tubes containing 10 μL of 0.1 M KOH in EDTA to prevent blood coagulation. Blood samples were immediately centrifuged at 3000 rpm for 10 minutes at 4 °C to allow separation of plasma. After collection of the blood, the tumor was dissected out of the brain and flash -frozen.

orthotopic GB126 tumors = test: Bioluminescence imaging of tumor burden, orthotopic GB126 PDX; assay type: in vivo, athymic nude mice; details: individual mice
Experimental: We additionally questioned whether QST, either alone or in combination with IR, could extend the survival of tumor-bearing mice. In this study, mice received the same treatments described above, but after completion of the 1-week IR regimen, mice continued to receive QST at 10 mg/kg or vehicle solution on MWF until study completion, as determined by large tumor burden and onset of neurological symptoms (Figure 8A). […] Although QST monotherapy slowed tumor growth, median survival for the QST-treated mice was only 4 days longer than for the vehicle-treated mice (P < 0.01), and IR alone increased median survival by 17 days (P < 0.001; Figure 8D). However, combining QST with IR led to a significant increase in median survival (37 days, P < 0.001) compared with the vehicle (Figure 8D). […]
Rad225XL irradiator (Precision X -Ray). […]
Live Bioluminescence Imaging
Two weeks after implantation, mice were examined for tumor growth by monitoring bioluminescence every 7 days using the IVIS Xenogen Spectrum platform. D -Luciferin Potassium Salt (Gold Biotechnology) was dissolved in PBS at a final concentration of 15 mg/mL. All mice were weighed each week and administered D -Luciferin via an intraperitoneal injection (10 μl/g). Fifteen minutes after injection, the mice were sedated using gaseous isoflurane (Piramal) and placed inside an IVIS Spectrum in vivo imaging system (Perkin Elmer) […]
for bioluminescence imaging. The total flux (photons/second) within the region of interest was calculated using the Living Image software 4.5 (Perkin Elmer).
Preparation of QST for In Vivo Use
For in vivo preparation, QST was dissolved in 50% polyethylene glycol (PEG) 300, 50% sterile water solution for 10 mg/kg dosing. The suspension was then sonicated for 10 minutes to allow the drug to completely dissolve. Finally, the pH of both the drug and the vehicle solutions was adjusted to 7.4 before intraperitoneal dosing. […]
In Vivo Irradiation Studies
Intracranial or flank tumor–bearing nude mice were sedated with gaseous isoflurane before
IR. On the first week of treatment, 2 hours after treatment with QST or vehicle, the mice were […]

[2] = acute treated tumors, individual mice

With `Cn1cc(CNCC2CCN(c3ncc(C(=O)NO)cn3)CC2)c2ccccc21` [QST, quisinostat] the “UNBOUND [QST], Brain” value ([1]; acute treated tumor-bearing mice, individual mice) was 1.55 nM and 0.424 nM and 0.84 nM and 2.425 nM and 1.0975 nM, the concentration at 3 h ([1]; acute treated tumor-bearing mice, individual mice, read-out: TOTAL [QST], brain) was 31 nM and 8.48 nM and 48.5 nM and 21.95 nM and the “TOTAL [QST], tumor” value [1, 2] was 634.32 nM and 1029.61 nM and 23.89 nM and 646.61 nM and 605.65 nM. The “UNBOUND [QST], Tumor” value [1, 2] was 31.716 nM and 51.4805 nM and 1.1945 nM and 32.3305 nM and 30.2825 nM, the concentration at 3 h ([1]; athymic nude, mouse, brain tissue contralateral to the tumor, intraperitoneal, 10 mg/kg, acute treated tumor-bearing mice, mean, read-out: Total QST, brain, mean) was 25.4 nM and the concentration at 3 h ([1]; athymic nude, mouse, brain tissue contralateral to the tumor, intraperitoneal, 10 mg/kg, acute treated tumor-bearing mice, mean, read-out: Unbound QST, brain, mean) was 1.27 nM. It also gave a concentration at 3 h ([1]; athymic nude, mouse, brain tumor (orthotopic GB126 xenograft), intraperitoneal, 10 mg/kg, acute treated tumors, mean, read-out: Total QST, tumor, mean) of 588 nM, a concentration at 3 h ([1]; athymic nude, mouse, brain tumor (orthotopic GB126 xenograft), intraperitoneal, 10 mg/kg, acute treated tumors, mean, read-out: Unbound QST, tumor, mean) of 29.4 nM and a concentration at 3 h ([1]; athymic nude, mouse, in vivo, 10 mg/kg, acute treated tumor-bearing mice, individual mice, read-out: TOTAL [QST], brain) of 16.8 nM. The “IVIS imaging, bioluminescence” value (orthotopic GB126 tumors; Qstat 10 mg/kg + IR 6 Gy, day 0 post Tx start (baseline)) was 75600000 photons/seconds and 79700000 photons/seconds and 125000000 photons/seconds and 47900000 photons/seconds and 137000000 photons/seconds and 47600000 photons/seconds and 28100000 photons/seconds and 33000000 photons/seconds and 18800000 photons/seconds and 23200000 photons/seconds, the “IVIS imaging, bioluminescence” value (orthotopic GB126 tumors; Qstat 10 mg/kg + IR 6 Gy, day 8 post Tx start) was 37000000 photons/seconds and 56500000 photons/seconds and 14000000 photons/seconds and 16000000 photons/seconds and 118000000 photons/seconds and 67200000 photons/seconds and 5460000 photons/seconds and 2880000 photons/seconds and 542000 photons/seconds and 178000000 photons/seconds and the “IVIS imaging, bioluminescence” value (orthotopic GB126 tumors; Qstat 10 mg/kg + IR 6 Gy, day 29 post Tx start) was 111000000 photons/seconds and 75900000 photons/seconds and 60800000 photons/seconds and 55400000 photons/seconds and 150000000 photons/seconds and 22000000 photons/seconds and 8210000 photons/seconds and 10600000 photons/seconds and 10200000 photons/seconds and 15700000 photons/seconds. For the same molecule, the “IVIS imaging, bioluminescence” value (orthotopic GB126 tumors; Qstat 10 mg/kg + IR 6 Gy, day 36 post Tx start) was 9000000 photons/seconds and 4380000 photons/seconds and 371000000 photons/seconds and 40800000 photons/seconds and 426000000 photons/seconds and 6690000 photons/seconds and 51000000 photons/seconds and 114000000 photons/seconds and 111000000 photons/seconds, the “IVIS imaging, bioluminescence” value (orthotopic GB126 tumors; Qstat 10 mg/kg + IR 6 Gy, day 43 post Tx start) was 943000000 photons/seconds and 1020000000 photons/seconds and 359000000 photons/seconds and 413000000 photons/seconds and 832000000 photons/seconds and 252000000 photons/seconds (2×) and 865000000 photons/seconds and 139000000 photons/seconds and 55200000 photons/seconds and the “IVIS imaging, bioluminescence” value (orthotopic GB126 tumors; Qstat 10 mg/kg + IR 6 Gy, day 50 post Tx start) was 1010000000 photons/seconds and 2140000000 photons/seconds and 260000000 photons/seconds and 1180000000 photons/seconds and 4090000000 photons/seconds and 2810000000 photons/seconds and 808000000 photons/seconds and 15100000 photons/seconds and 286000000 photons/seconds. The “IVIS imaging, bioluminescence” value (orthotopic GB126 tumors; Qstat 10 mg/kg + IR 6 Gy, day 57 post Tx start) was 6040000000 photons/seconds and 4070000000 photons/seconds and 1070000000 photons/seconds and 2530000000 photons/seconds and 1020000000 photons/seconds and 1870000000 photons/seconds and 1150000000 photons/seconds, the “IVIS imaging, bioluminescence” value (orthotopic GB126 tumors; Qstat 10 mg/kg alone, day 0 post Tx start (baseline), PDX model) was 86400000 photons/seconds and 33100000 photons/seconds and 140000000 photons/seconds and 26400000 photons/seconds and 105000000 photons/seconds and 45000000 photons/seconds and 52600000 photons/seconds and 53600000 photons/seconds and 60100000 photons/seconds and 13600000 photons/seconds and the “IVIS imaging, bioluminescence” value (orthotopic GB126 tumors; Qstat 10 mg/kg alone, day 8 post Tx start) was 42100000 photons/seconds and 58500000 photons/seconds and 585000000 photons/seconds and 200000000 photons/seconds and 458000000 photons/seconds and 884000000 photons/seconds and 49000000 photons/seconds and 19500000 photons/seconds and 581000000 photons/seconds and 107000000 photons/seconds. The “IVIS imaging, bioluminescence” value (orthotopic GB126 tumors; Qstat 10 mg/kg alone, day 15 post Tx start) was 5290000 photons/seconds and 888000000 photons/seconds and 5530000 photons/seconds and 4270000 photons/seconds and 7590000 photons/seconds and 19400000 photons/seconds and the “IVIS imaging, bioluminescence” value (orthotopic GB126 tumors; Qstat 10 mg/kg alone, day 29 post Tx start) was 1550000000 photons/seconds and 10600000000 photons/seconds and 15100000000 photons/seconds and 7070000000 photons/seconds and 3880000000 photons/seconds and 387000000 photons/seconds and 12600000000 photons/seconds and 413000000 photons/seconds and 4430000000 photons/seconds.
